Assay results taken from ChEMBL document CHEMBL3826972, “Spirostanol saponins from Tacca vietnamensis and their anti-inflammatory activity” (Bioorg Med Chem Lett, 2016).
Activity calls are given as the source filed them. The calls are words filed in the database; no cut-off is given here.

Columns and labels:
[1] = Cytotoxicity against mouse BV2 cells assessed as cell viability at 80 uM; format: cell-based, BV-2; conditions: read-out: Activity
[2] = Cytotoxicity against mouse RAW264.7 cells assessed as cell viability at 80 uM; format: cell-based; conditions: read-out: Activity
BV-2 [3] = experiment: Inhibition of LPS-induced NO production in mouse BV2 cells at 80 uM by Griess assay; format: functional
RAW264.7 [4] = experiment: Inhibition of LPS-induced NO production in mouse RAW264.7 cells at 80 uM by Griess assay; format: functional
BV-2 [5] = experiment: Inhibition of LPS-induced NO production in mouse BV2 cells by Griess assay; format: functional, cell-based
RAW264.7 [6] = experiment: Inhibition of LPS-induced NO production in mouse RAW264.7 cells by Griess assay; format: functional, cell-based

C[C@H]1CC[C@@]2(OC1)O[C@@H]1C[C@@H]3[C@H]4CC=C5C[C@H](O[C@H]6O[C@@H](CO)[C@H](O)[C@@H](O[C@H]7O[C@H](C)[C@@H](O[C@@H]8O[C@H](CO)[C@@H](O)[C@H](O)[C@H]8O)[C@H](O)[C@@H]7O)[C@@H]6O[C@H]6O[C@H](C)[C@@H](O)[C@H](O)[C@@H]6O)CC[C@@]5(C)[C@@H]4CC[C@@]3(C)[C@@H]1[C@H]2C
viability at 80 µM [1]: < 50%
viability at 80 µM [2]: < 50%

C[C@@H]1O[C@@H](O[C@H]2[C@H](O[C@H]3CC[C@@]4(C)C(=CC[C@H]5[C@@H]6C[C@@H]7OC8(OC[C@](C)(O)C[C@@H]8O)[C@@H](C)[C@@H]7[C@@]6(C)CC[C@@H]54)C3)O[C@H](CO)[C@@H](O)[C@@H]2O[C@@H]2O[C@@H](C)[C@H](O)[C@@H](O)[C@H]2O)[C@H](O)[C@H](O)[C@H]1O (single isomer, unassigned)
inhibition at 80 µM (BV-2 [3]): < 50%
inhibition at 80 µM (RAW264.7 [4]): < 50%
IC50 (BV-2 [5]): > 80 µM
IC50 (RAW264.7 [6]): > 80 µM

C[C@@H]1COC2(C[C@@H]1O)O[C@H]1C[C@H]3[C@@H]4CC=C5C[C@@H](O[C@@H]6O[C@H](CO)[C@@H](O)[C@H](O[C@@H]7O[C@@H](C)[C@H](O)[C@@H](O)[C@H]7O)[C@H]6O[C@@H]6O[C@@H](C)[C@H](O)[C@@H](O)[C@H]6O)CC[C@]5(C)[C@H]4CC[C@]3(C)[C@H]1[C@@H]2C (single isomer, unassigned)
inhibition at 80 µM (BV-2 [3]): < 50%
inhibition at 80 µM (RAW264.7 [4]): < 50%
IC50 (BV-2 [5]): > 80 µM
IC50 (RAW264.7 [6]): > 80 µM

C[C@@H]1CO[C@]2(O[C@H]3C[C@@H]4[C@@H]5CC=C6C[C@@H](O[C@@H]7O[C@H](CO)[C@@H](O)[C@H](O[C@@H]8O[C@@H](C)[C@H](O)[C@@H](O)[C@H]8O)[C@H]7O[C@@H]7O[C@@H](C)[C@H](O)[C@@H](O)[C@H]7O)CC[C@]6(C)[C@H]5CC[C@]4(C)[C@H]3[C@@H]2C)[C@@H](O)[C@@H]1O (stereo in doubt)
inhibition (BV-2 [3]): Active
inhibition (RAW264.7 [4]): Active
IC50 (BV-2 [5]): 52.1 µM
IC50 (RAW264.7 [6]): 60.7 µM

C[C@@H]1O[C@@H](O[C@H]2[C@H](O[C@@H]3CC[C@]4(C)C(=CC[C@@H]5[C@H]6C[C@H]7O[C@@]8(OC[C@](C)(O)C[C@H]8O)[C@H](C)[C@H]7[C@]6(C)CC[C@H]54)C3)O[C@H](CO)[C@@H](O)[C@@H]2O[C@@H]2O[C@@H](C)[C@H](O[C@@H]3O[C@H](CO)[C@@H](O)[C@H](O)[C@H]3O)[C@@H](O)[C@H]2O)[C@H](O)[C@H](O)[C@H]1O (stereo in doubt)
inhibition at 80 µM (BV-2 [3]): < 50%
inhibition at 80 µM (RAW264.7 [4]): < 50%
IC50 (BV-2 [5]): > 80 µM
IC50 (RAW264.7 [6]): > 80 µM

C[C@@H]1CO[C@@]2(O[C@@H]3C[C@@H]4[C@H]5CC=C6C[C@H](O[C@@H]7O[C@H](CO)[C@@H](O)[C@H](O[C@@H]8O[C@@H](C)[C@H](O[C@@H]9O[C@H](CO)[C@@H](O)[C@H](O)[C@H]9O)[C@@H](O)[C@H]8O)[C@H]7O[C@@H]7O[C@@H](C)[C@H](O)[C@@H](O)[C@H]7O)CC[C@@]6(C)[C@@H]5CC[C@@]4(C)[C@@H]3[C@H]2C)[C@H](O)C1 (stereo in doubt)
inhibition (BV-2 [3]): Active
inhibition (RAW264.7 [4]): Active
IC50 (BV-2 [5]): 43.7 µM
IC50 (RAW264.7 [6]): 37 µM

C[C@@H]1CO[C@]2(C[C@@H]1O)O[C@@H]1C[C@@H]3[C@H]4CC=C5C[C@H](O[C@@H]6O[C@H](CO)[C@@H](O)[C@H](O[C@@H]7O[C@@H](C)[C@H](O[C@@H]8O[C@H](CO)[C@@H](O)[C@H](O)[C@H]8O)[C@@H](O)[C@H]7O)[C@H]6O[C@@H]6O[C@@H](C)[C@H](O)[C@@H](O)[C@H]6O)CC[C@@]5(C)[C@@H]4CC[C@@]3(C)[C@@H]1[C@H]2C (stereo in doubt)
inhibition at 80 µM (BV-2 [3]): < 50%
inhibition at 80 µM (RAW264.7 [4]): < 50%
IC50 (BV-2 [5]): > 80 µM
IC50 (RAW264.7 [6]): > 80 µM

C[C@@H]1CO[C@@]2(O[C@@H]3C[C@@H]4[C@H]5CC=C6C[C@H](O[C@@H]7O[C@H](CO)[C@@H](O)[C@H](O[C@@H]8O[C@@H](C)[C@H](O[C@@H]9O[C@H](CO)[C@@H](O)[C@H](O)[C@H]9O)[C@@H](O)[C@H]8O)[C@H]7O[C@@H]7O[C@@H](C)[C@H](O)[C@@H](O)[C@H]7O)CC[C@@]6(C)[C@@H]5CC[C@@]4(C)[C@@H]3[C@H]2C)[C@H](O)[C@@H]1O (stereo in doubt)
inhibition (BV-2 [3]): Active
inhibition (RAW264.7 [4]): Active
IC50 (BV-2 [5]): 47.3 µM
IC50 (RAW264.7 [6]): 58.2 µM

O=C(/C=C/c1ccc(O)c(O)c1)c1ccc(O)cc1O [BUTEIN]
IC50 (BV-2 [5]): 4.3 µM
IC50 (RAW264.7 [6]): 5.3 µM
